Values of other authors, collected in publication PMC4001449, “Thienoquinolines as Novel Disruptors of the PKCε/RACK2 Protein–Protein Interaction” (Journal of Medicinal Chemistry, 2014).

Legend:
Conditions in all cases: cited from earlier work
[1] = target: T1, PKCε (Homo sapiens, UniProt Q02156); parameters: method as in PMID 21186251
T1 sequence (Q02156 1-737): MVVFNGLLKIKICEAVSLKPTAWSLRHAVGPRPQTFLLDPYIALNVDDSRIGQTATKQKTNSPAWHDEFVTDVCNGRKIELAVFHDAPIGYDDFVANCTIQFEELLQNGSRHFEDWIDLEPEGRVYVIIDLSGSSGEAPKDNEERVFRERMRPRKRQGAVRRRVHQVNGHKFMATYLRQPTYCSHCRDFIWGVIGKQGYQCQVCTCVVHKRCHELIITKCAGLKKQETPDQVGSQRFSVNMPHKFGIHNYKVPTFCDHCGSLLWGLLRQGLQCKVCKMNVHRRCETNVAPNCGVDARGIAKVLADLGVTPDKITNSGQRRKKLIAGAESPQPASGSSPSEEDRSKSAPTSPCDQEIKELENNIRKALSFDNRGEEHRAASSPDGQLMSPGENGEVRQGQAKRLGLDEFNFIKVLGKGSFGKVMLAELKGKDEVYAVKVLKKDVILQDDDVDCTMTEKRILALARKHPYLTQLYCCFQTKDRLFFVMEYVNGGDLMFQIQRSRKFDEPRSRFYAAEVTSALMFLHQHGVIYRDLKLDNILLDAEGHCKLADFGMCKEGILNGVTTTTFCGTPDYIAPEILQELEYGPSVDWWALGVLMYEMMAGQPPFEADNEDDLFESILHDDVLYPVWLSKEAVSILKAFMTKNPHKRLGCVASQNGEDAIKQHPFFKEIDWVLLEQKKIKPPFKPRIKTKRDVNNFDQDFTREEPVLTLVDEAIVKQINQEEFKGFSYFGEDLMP

[2] = target: PKCη (Homo sapiens, UniProt P24723); parameters: method as in PMID 21186251
[3] = tested on: interaction of PKCι and its adaptor protein Par6; parameters: method as in PMID 16861740
[4] = target: ribonucleotide reductase; parameters: method as in PMID 11668483

Chain of PKCη (P24723 whole entry): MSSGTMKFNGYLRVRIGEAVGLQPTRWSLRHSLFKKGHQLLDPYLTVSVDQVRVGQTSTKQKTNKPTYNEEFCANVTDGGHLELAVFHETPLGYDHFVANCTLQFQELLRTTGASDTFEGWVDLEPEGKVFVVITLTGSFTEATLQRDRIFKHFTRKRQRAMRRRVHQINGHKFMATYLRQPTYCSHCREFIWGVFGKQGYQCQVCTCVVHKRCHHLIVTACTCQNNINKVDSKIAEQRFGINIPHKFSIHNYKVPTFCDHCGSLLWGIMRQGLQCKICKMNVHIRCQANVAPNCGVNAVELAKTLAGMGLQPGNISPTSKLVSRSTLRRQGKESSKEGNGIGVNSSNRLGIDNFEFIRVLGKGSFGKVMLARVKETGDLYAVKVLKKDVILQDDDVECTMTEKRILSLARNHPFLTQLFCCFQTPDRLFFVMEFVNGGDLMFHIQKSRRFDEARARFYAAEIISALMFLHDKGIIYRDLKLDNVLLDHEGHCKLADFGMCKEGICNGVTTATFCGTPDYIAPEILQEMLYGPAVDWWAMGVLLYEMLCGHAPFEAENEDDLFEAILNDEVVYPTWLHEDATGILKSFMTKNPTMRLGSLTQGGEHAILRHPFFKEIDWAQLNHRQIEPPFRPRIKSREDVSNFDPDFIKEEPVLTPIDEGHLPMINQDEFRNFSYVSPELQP

Molecule: O=C1NC(=O)N(Cc2ccccc2)C(=O)/C1=C\c1ccc2c(c1)OCO2 [BAS 02104951]
- Direct inhibition of PKCε [1]: inhibited
- Direct inhibition of PKCη [2]: inhibited

Molecule: O=C(O)CC([S-])C(=O)O.[Au+] (stereo not shown) [aurothiomalate]
- Active concentration range, prevention of PKCι/Par6 interaction [3]: ~10 µM

Molecule: hydroxyurea
- IC50 [4]: 37.2 µM
